Literature values, collected in US20210290592A1, “COMPOSITION AND METHOD FOR OPIOID SPARING” (Zelira Therapeutics Operations Pty Ltd., priority 2018, published 2021).

Conditions: treatment group, 5 mg THC, n=105; 74 mg in control group, difference not statistically significant

Structure (SMILES): CCCCCc1cc(O)c2c(c1)OC(C)(C)[C@@H]1CCC(C)=C[C@@H]21 [dronabinol]
- Median dose of micro-opioid agonist piritramide in the two days post surgery: 54 mg
